In US11613538B2, “Method of inhibiting or reducing a viral infection” (PTC Therapeutics, Inc., priority 2009, dated 2023):
Read-outs that look alike come from different tables or passages of the source.

Key:
[1] = test system: HIV-1; test: HIV-1 CPE protection assay in MT-2 cells; type: cell-based
Procedure: Antiviral activity against HIV-1 is determined in a human cell line. […] The activity against HIV may also be tested in human peripheral blood mononuclear cells in cell culture.

[2] = test system: HSV-1; test: HSV-1 CPE protection assay in Vero cells; type: cell-based, herpes simplex virus-1
[3] = test system: HCV genotype 1b replicon; test: HCV subgenomic replicon assay, genotype 1b; type: cell-based; conditions: Hepatitis C virus
[4] = test system: 786-O cells; test: 786-O renal cell carcinoma xenograft (VHL-negative), tumor volume; type: in vivo, mice; conditions: for Tumor size (mean±SD): PO
Procedure: Both sunitinib and rapamycin are used clinically for treatment of renal cancer.
(§1) A total of 100 mice were injected, of which 60 were used in the study.
Groups were taken off study when the mean tumor volume in a group was 1300 mm^3 or more. Vehicle-treatment started on Day 0 and continued through Day 57. Compound #10-treatment started on Day 0 and continued through Day 88.
(§2) Tumors were measured twice per week using digital calipers.
The time to progression to reach a tumor volume 1000 mm^3 was calculated for each mouse. The median values were reported.

[5] = test system: Yellow Fever; test: microbe, parasite or virus in culture; type: cell-based, yellow fever virus
[6] = test system: HeLa cells; conditions: human
[7] = test system: hypoxia-induced VEGF production in HeLa cells; test: cells; type: cell-based, human
[8] = test system: cancer in patients; test: Treatment of individual cancer patients (clinical parameters and tumor markers); type: in vivo, human; conditions: monotherapy, in words
Procedure: The arrow symbol represents the timepoint at which docetaxel was reduced to 60 mg/m2.

[9] = test system: Vero cells; conditions: monkey
[10] = test system: MDCK cells; conditions: dog
[11] = test system: RSV; test: RSV CPE protection assay in Vero cells; type: cell-based, respiratory syncytial virus
[12] = test system: protein expression in RCC lines 786-0, 769-P and A498; test: Western blot of protein expression in panel of RCC lines (786-0, 769-P and A498) (FIG. 8); type: cell-based; conditions: monotherapy at different μM dose levels; in words
[13] = test system: Adenovirus; test: Adenovirus CPE protection assay in HeLa cells; type: cell-based
[14] = test system: PV strain Mahoney; test: microbe, parasite or virus in culture; type: cell-based, poliovirus
[15] = test system: MT-2 cells; test: CC50 in MT-2 cells (antiviral assay panel); type: cell-based, human; conditions: HIV-1 assay line
[16] = test system: Dengue 2; test: Dengue 2 CPE protection assay in Vero E6 cells; type: cell-based, dengue virus
[17] = test system: WNV; test: WNV CPE protection assay in Vero cells (MTS); type: cell-based, West Nile virus
Procedure: Antiviral activity of a Compound against WNV is tested in Vero cells by protection of virus induced cytopathic effects (i.e. cytoprotection measured as cell viability, IC50). The effect of a Compound on inhibition of virus induced cytopathic effects is determined using MTS (CellTiter) assay.

[18] = test system: Parainfluenza; test: Parainfluenza CPE protection assay in Vero cells; type: cell-based, parainfluenza virus
[19] = test system: Caki-1 cells; test: Caki-1 renal cell carcinoma xenograft (VHL-positive), tumor volume; type: in vivo, mice; conditions: for Tumor size (mean±SD): PO
Procedure: The Caki-1 cell line expresses the von Hippel-Lindau (VHL) protein which acts as a tumor suppressor by promoting the rapid degradation of HIF-1α (hypoxia-inducible factor 1α) under normoxia. Under hypoxic conditions, HIF-1α is stabilized and activated by the inability of VHL to act resulting in increased transcription of VEGF that is responsible for the high vascularization of RCC (see Turcotte et al, 2003, Zimmer et al, 2004).
as §1
Groups were taken off study when the mean tumor volume in a group was 1300 mm^3 or more. Vehicle-treatment started on Day 0 and continued through Day 35. Compound #10-treatment started on Day 0 and continued through Day 52.
as §2
[…] The median values were reported.

[20] = test system: c-Myc expression in 786-O cells; test: Western blot of protein expression in 786-O Renal Cancer Cell line (FIG. 7A); type: cell-based; conditions: different dose levels (1 μM and 10 μM), in words
Excerpt: The Vinculin, c-Myc, Survivin, ornithine decarboxylase (ODC), Cyclin D and pS6 mRNA are cap-dependent mRNAs that are considered difficult to translate. The blots for each mRNA shown were translated via a cap-independent manner with mTOR inhibition (Akt has been inactivated).

[21] = Caki-1 xenograft study: body weight and clinical observations; type: in vivo, mice; conditions: Caki-1 study
Excerpt: Body Weight: The mice were weighed once per week.

[22] = test system: Vaccinia; test: microbe, parasite or virus in culture; type: cell-based; conditions: Orthopoxvirus vaccinia, Vero C1008
[23] = test system: Vero E6 cells
[24] = human respiratory syncytial virus, Vero

With COc1ccc([C@H]2c3[nH]c4ccc(Cl)cc4c3CCN2C(=O)Oc2ccc(Cl)cc2)cc1 (racemic) [Compound #10] the IC50 ([1]; Human immunodeficiency virus 1, MT2) was 22 nM, the EC50 ([1]; Human immunodeficiency virus 1, MT2, 72 h, human cell line, 3 days post-infection, normalized to cell number after treatment in the absence of infection, read-out: EC50, prevention of cytopathic effect) was 22 nM and the IC50 ([2]; Human alphaherpesvirus 1, HSV-1, DNA, Vero, CPE protection) was over 1000 nM. The IC90 ([2]; Human alphaherpesvirus 1, HSV-1, Vero, CPE protection) was over 1000 nM, the “Inhibition of herpes simplex virus-1 (HSV-1)” value ([2]; at the doses tested, in words) was “did not inhibit” and the IC50 [3] was 1 nM. For the same compound, the IC50 ([3]; read-out: average IC50) was 36 nM, the “Median time for tumors to reach 1000 mm^3” value ([4]; Compound #10 10 mg/kg QD PO, sunitinib 75 mg/kg QD PO, rapamycin 15 mg/kg PO, time on study used if not reached) was 71 days and the “Tumor size (mean±SD)” value ([4]; Day 57, 10 mg/kg QD) was 945±408 mm^3. For the same compound, the “Tumors smaller than those in vehicle-treated mice” value ([4]; Day 57, Compound #10 10 mg/kg QD PO, sunitinib 75 mg/kg QD PO, rapamycin 15 mg/kg PO) was 34%, the “Tumor size (mean±SD)” value ([4]; Day 88, 10 mg/kg QD) was 1569±671 mm^3 and the “Cure (tumor size <60 mm^3, not measurable)” value ([4]; Mouse 2-10, 10 mg/kg, in words) was “cured”. For the same compound, the IC50 ([5]; Yellow fever virus, HeLa) was over 1000 nM, the IC90 ([5]; Yellow fever virus, HeLa) was over 1000 nM and the “Activity against yellow fever” value ([5]; at the doses tested, in words) was “inactive”. The CC50 [6] was over 1000 nM, the “Inhibition of stress-induced VEGF production (FIG. 1)” value [7] was “inhibit stress-induced VEGF production” and the “Clinical outcome (FIG. 22)” value ([8]; patient having cholangiocarcinoma, after four previous therapeutic modalities) was “stabilization for a tumor marker”. The “Clinical outcome (FIG. 21)” value ([8]; patient having chondrosarcoma, after one previous therapeutic modality) was “stabilization and reduction in a number of clinical parameters and tumor markers”, the “Clinical outcome (FIG. 20)” value ([8]; patient having melanoma, after two previous therapeutic modalities) was “stabilization and reduction in a number of clinical parameters and tumor markers” and the “Clinical outcome (FIG. 19)” value ([8]; patient having thyroid cancer, after three previous therapeutic modalities) was “stabilization and reduction in a number of clinical parameters and tumor markers”. It also gave a CC50 [9] of over 1000 nM, a CC50 [10] of over 1000 nM and an IC50 [11, 24] of 250 nM. For the same compound, the IC90 [11, 24] was at least 160 nM, the “Activity against respiratory syncytial virus (RSV)” value ([11]; in words) was “potent activity” and the “Effect on protein expression (FIG. 8)” value [12] was “dose-dependent and depended on the RCC line used”. For the same compound, the Inhibition of adenovirus ([13]; at the doses tested, in words) was “did not inhibit”, the IC50 ([13]; unidentified adenovirus, Adenovirus, DNA, HeLa, CPE protection) was over 1000 nM and the IC90 ([13]; unidentified adenovirus, Adenovirus, HeLa, CPE protection) was over 1000 nM. It also gave an IC50 ([14]; Enterovirus C, HeLa) of 0.57 nM, an IC90 ([14]; Enterovirus C, HeLa) of 2.8 nM and an IC50 ([14]; Enterovirus C, HeLa, read-out: average IC50) of 0.6 nM. For the same compound, the “decrease in activity when added at the time of infection” value ([14]; infected HeLa cells) was 65 fold, the CC50 [15] was 4.1 nM and the IC50 ([16]; Dengue virus, Vero C1008, Dengue 2, (+) RNA, Vero E6, CPE protection) was over 1000 nM. For the same compound, the IC90 ([16]; Dengue virus, Vero C1008, Dengue 2, Vero E6, CPE protection) was over 1000 nM, the Activity against dengue ([16]; at the doses tested, in words) was “inactive” and the IC50 ([17]; West Nile virus, WNV, (+) RNA, Vero, CPE protection) was 67 nM. For the same compound, the IC90 ([17]; West Nile virus, WNV, Vero, CPE protection) was 280 nM, the “Activity against West Nile virus (WNV)” value ([17]; in words) was “potent activity” and the IC50 ([18]; Parainfluenza, (−) RNA, Vero, CPE protection) was 29 nM. For the same compound, the IC90 ([18]; Parainfluenza, Vero, CPE protection) was 44 nM, the “Activity against parainfluenza virus” value ([18]; in words) was “potent activity” and the “Median time to reach 1500 mm^3” value [19] was 39 days. The “Median time for tumors to reach 1000 mm^3” value ([19]; Compound #10 10 mg/kg QD PO, sunitinib 75 mg/kg QD PO, rapamycin 15 mg/kg PO) was 39 days, the “Tumor size (mean±SD)” value ([19]; Day 35, 10 mg/kg QD) was 866±450 mm^3 and the “Tumors smaller than those in vehicle-treated mice” value ([19]; Day 35, Compound #10 10 mg/kg QD PO, sunitinib 75 mg/kg QD PO, rapamycin 15 mg/kg PO) was 44%. The “Tumor size (mean±SD)” value ([19]; Day 52, 10 mg/kg QD) was 1538±1070 mm^3, the “Suppression of c-Myc expression (FIG. 7A)” value [20] was “not completely effective in suppressing c-Myc expression” and the “Body weight loss from Day 0” value ([21]; Day 8 and Day 14) was 2.2%. The “Survival of treated mice” value ([21]; all mice, in words) was “survived until sacrificed”, the “Body weight change from initial body weight” value ([21]; in words) was “transiently lost weight” and the IC50 [22] was 40 nM. For the same compound, the IC90 [22] was 80 nM, the CC50 ([23]; Dengue 2 assay line) was 700 nM and the CC50 ([23]; Vaccinia assay line) was 83 nM.
